The values that follow come from paper PMC6403188, “Species-Specific Structural Requirements of Alpha-Branched Trehalose Diester Mincle Agonists” (Frontiers in Immunology, 2019).

One data set has as its target T1, mouse Mincle (Mus musculus, UniProt Q9R0Q8).
T1 construct: host or cells: HEK (HEK-Blue) cells with NF-κB-driven SEAP reporter
T1 sequence (Q9R0Q8 1-214): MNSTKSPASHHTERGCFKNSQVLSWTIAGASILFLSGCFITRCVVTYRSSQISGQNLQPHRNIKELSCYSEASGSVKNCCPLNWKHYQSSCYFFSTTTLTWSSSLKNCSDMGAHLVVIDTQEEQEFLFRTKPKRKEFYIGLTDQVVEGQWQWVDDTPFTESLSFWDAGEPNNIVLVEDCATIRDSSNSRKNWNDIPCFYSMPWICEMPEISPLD
Description: HEK cells expressing mouse Mincle with NF-κB-driven SEAP reporter. Format: cell-based. As to conditions: for EC50: average calculated EC50, n = 3, read-out: mMincle EC50 (converted); for EC50 / SEAP induction / activation of mouse Mincle-expressing HEK cells (in words): plate-coated compound, 24 h; for Relative activity in mouse vs. human Mincle HEK cells: comparison of mouse and human Mincle receptor transfected HEK cells. The procedure: (§1) Human and mouse Mincle expressing HEK cells were obtained from Invivogen (San Diego, CA). Cells were cultured according to the manufactures instructions in DMEM with 10% FBS, 50 U/ml penicillin, […] streptomycin, […] Normocin, 2 mM L-glutamine, 30 μg/ml blasticidin, 1 μg/ml puromycin and 1x HEK-Blue™ CLR Selection. For assay, indicated compounds were serially diluted in diluent (50%IPA/50% isooctane), 20 μl of a 10x final concentration were applied to the bottom of a 96-well tissue culture plate and the solvent was evaporated for >1 h in a biosafety hood. HEK cells were applied to the plates at a density of 3 × 10^5 cells/well and incubated for 18–24 h at 37°C. Cell supernatants were harvested and analyzed via the manufacturer's instructions using Hek-Blue^TM Detection. SEAP activity was assessed by reading the optical density (OD) at 620–655 nm with a microplate reader; data are expressed as the fold change in OD over vehicle treated cells.
(§2) To investigate the capacity of these molecules to bind to and activate the Mincle receptor, we used human embryonic kidney (HEK) cells expressing the human or mouse Mincle receptor along with an NF-κB-driven secreted embryonic alkaline phosphatase (SEAP) reporter. Many of the αTDE compounds were able to induce production of SEAP in a dose dependent manner (Figure 2). HEK null cells (HEK cells containing the NF-kB reporter without Mincle receptor) were used as a negative controls to confirm the receptor specificity of the compounds in HEK cells expressing human or mouse Mincle reporter (Supplemental Figure 4). […] The relative activity of TDM and TDB in the human and mouse HEK cells is consistent with the results reported by others ([20]). […] This synthetic version is a shorter chain version of the lipid-derived one reported to be “human-specific” ([28]).
(§3) Figure 2 Activation of human or mouse Mincle in response to synthetic αTDE compounds. The indicated compounds were dissolved in 50% isopropanol/isooctane, serially diluted in vehicle and then dried to the bottom of a tissue culture plate. HEK cells transfected with human (A–C) or mouse (D–F) Mincle and an NF-κB-driven SEAP reporter were incubated with the compounds for 24 h followed by assessment of the supernatants for SEAP levels. Data are represented as fold change in OD650 over vehicle treated cells. Graphs are mean values from three independent experiments ± SEM. Table in (G) represents the average calculated EC50 and average max SEAP value (± SD, n = 3) for each compound in each cell line. […]

Another data set concerns the target T2, human Mincle (Homo sapiens, UniProt Q9ULY5).
T2 construct: host or cells: HEK (HEK-Blue) cells with NF-κB-driven SEAP reporter
T2 sequence (Q9ULY5 1-219): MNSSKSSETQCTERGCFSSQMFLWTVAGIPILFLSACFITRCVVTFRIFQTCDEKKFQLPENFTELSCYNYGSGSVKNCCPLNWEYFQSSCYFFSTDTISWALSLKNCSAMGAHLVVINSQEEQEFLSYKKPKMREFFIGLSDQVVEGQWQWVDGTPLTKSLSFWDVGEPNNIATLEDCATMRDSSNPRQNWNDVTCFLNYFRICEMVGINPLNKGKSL
Briefly: HEK cells expressing human Mincle with NF-κB-driven SEAP reporter. Format: cell-based. As to conditions: plate-coated compound, 24 h; for EC50: average calculated EC50, n = 3, read-out: hMincle EC50 (converted). The procedure:
as §1, §2, §3

For data set [1], the system named is Hek Blue human or mouse Mincle-expressing cells. Format: cell-based. As to conditions: top concentrations, 24 h; compared with vehicle only-treated cells.
Another data set deals with THP-1 cells. Briefly: TNFα production from THP-1 cells (ELISA). Format: cell-based, human. Conditions: plate-coated compound, 24 h. The procedure:
Supernatants were harvested from treated cells following 18–24 h of incubation. Supernatants were analyzed using a DuoSet TNFα ELISA (R&D Systems, Minneapolis, MN) or Luminex multiplex panel for analytes TNFα, IL-1β, IL-6, IFNγ, IL-12p70, and IL-23 (R&D Systems) per the manufacturer's instructions. Multiplex analysis was performed using a Luminex 200 instrument (Luminex Corporation) and analyzed with StarStation2.3 software. ELISAs were read on a plate reader at 450 nm and cytokine concentration was calculated by fitting the standard curve OD values to a 4-parameter logistical model using curve fitting software (XLfit, IDBS, Alameda, CA).
Next, investigation into activity of the alpha-branched TDE compounds was extended to include both human and murine monocytic cell lines, THP-1 and RAW264.7, respectively. These cell lines have previously been reported as responsive to the Mincle receptor agonists TDM and TDB ([30], [31]).
Figure 3 TNFα production from human THP-1 cells in response to stimulation with synthetic αTDE compounds. The indicated compounds were dissolved in 50% isopropanol/isooctane, serially diluted in vehicle and then dried to the bottom of a tissue culture plate. THP-1 cells were applied to the compound-coated plates and incubated at 37°C; supernatant was harvested 24 h later and analyzed for TNFα via ELISA (A-E). Results from the 200 μg/ml concentration vs. each compounds acyl chain length are shown in (F). Data points are average of at least two independent experiments ± SD.

With `CCCCCCCCCCCCCC(CCCCCCCCCCCCC)C(=O)OC[C@H]1O[C@H](O[C@H]2O[C@H](COC(=O)C(CCCCCCCCCCCCC)CCCCCCCCCCCCC)[C@@H](O)[C@H](O)[C@H]2O)[C@H](O)[C@@H](O)[C@@H]1O` [Compound B28], the EC50 is 592 nM at mouse Mincle and 77.4 nM at human Mincle.
As to `CCCCCCCCCCC(CCCCCCCCCC)C(=O)OC[C@H]1O[C@H](O[C@H]2O[C@H](COC(=O)C(CCCCCCCCCC)CCCCCCCCCC)[C@@H](O)[C@H](O)[C@H]2O)[C@H](O)[C@@H](O)[C@@H]1O` [Compound B22], the concentration giving a half-maximal response (EC50) was 689 nM at mouse Mincle and 322 nM at human Mincle. The “Cell viability of Mincle HEK cells” value in data set [1] is recorded as “less substantial decreases”.
`CCCCCCCCCCCC(CCCCCCCCCCC)C(=O)OC[C@H]1O[C@H](O[C@H]2O[C@H](COC(=O)C(CCCCCCCCCCC)CCCCCCCCCCC)[C@@H](O)[C@H](O)[C@H]2O)[C@H](O)[C@@H](O)[C@@H]1O` [Compound B24]: the EC50 on mouse Mincle was 608 nM; on human Mincle it was 92.6 nM. Moreover, in data set [1], the “Cell viability of Mincle HEK cells” value is given as “less substantial decreases”.
Take `CCCCCCCCCCCCCCCC(O)C(CCCCCCCCCCCCCC)C(=O)OCC(O)CO` (centres unmarked) [MMG, synthetic glycerol monomycolate, reference compound]: the “TNFα induction from THP-1 cells (in words)” value (shortened to “TNFα induction”) in the data set on THP-1 cells was “potent, robust induction of TNFα”. Moreover, on mouse Mincle, the “Relative activity in mouse vs. human Mincle HEK cells” value was “more potent in mouse Mincle HEK cells” and the “SEAP induction / activation of mouse Mincle-expressing HEK cells (in words)” value is “able to activate”. Besides, on human Mincle, the “SEAP induction / activation of human Mincle-expressing HEK cells (in words)” value is given as “able to activate”.
With `CCCCCCCCCC(CCCCCCCCC)C(=O)OC[C@H]1O[C@H](O[C@H]2O[C@H](COC(=O)C(CCCCCCCCC)CCCCCCCCC)[C@@H](O)[C@H](O)[C@H]2O)[C@H](O)[C@@H](O)[C@@H]1O` [Compound B20], the EC50 on mouse Mincle is 328 nM; at human Mincle it was 128 nM. In data set [1], the “Cell viability of Mincle HEK cells” value was “less substantial decreases”.
Take `CCCCCCCCCCCCC(CCCCCCCCCCCC)C(=O)OC[C@H]1O[C@H](O[C@H]2O[C@H](COC(=O)C(CCCCCCCCCCCC)CCCCCCCCCCCC)[C@@H](O)[C@H](O)[C@H]2O)[C@H](O)[C@@H](O)[C@@H]1O` [Compound B26]: the “TNFα induction” value with THP-1 cells is “roughly equivalent levels of TNFα as B14/B16”. In addition, the values for the EC50 at mouse Mincle and at human Mincle were 907 nM and 263 nM, respectively.
Turning to `CCCCCC(CCCCC)C(=O)OC[C@H]1O[C@H](O[C@H]2O[C@H](COC(=O)C(CCCCC)CCCCC)[C@@H](O)[C@H](O)[C@H]2O)[C@H](O)[C@@H](O)[C@@H]1O` [Compound B12], the EC50 at mouse Mincle was 1260 nM. For the same compound, the “Cell viability of Mincle HEK cells” value in data set [1] is given as “marked decreases in viability”.
As for `CCCCCCCCCCCCCCC(CCCCCCCCCCCCCC)C(=O)OC[C@H]1O[C@H](O[C@H]2O[C@H](COC(=O)C(CCCCCCCCCCCCCC)CCCCCCCCCCCCCC)[C@@H](O)[C@H](O)[C@H]2O)[C@H](O)[C@@H](O)[C@@H]1O` [Compound B30], the EC50 was 955 nM on mouse Mincle and 43.8 nM at human Mincle.
`CCCCCCC(CCCCCC)C(=O)OC[C@H]1O[C@H](O[C@H]2O[C@H](COC(=O)C(CCCCCC)CCCCCC)[C@@H](O)[C@H](O)[C@H]2O)[C@H](O)[C@@H](O)[C@@H]1O` [Compound B14]: on mouse Mincle, the EC50 is 1520 nM. The “Cell viability of Mincle HEK cells” value in data set [1] is given as “less substantial decreases”.
Turning to `CCCCCCCCCCCCCCCC(O)C(CCCCCCCCCCCCCC)C(=O)OC[C@H]1O[C@H](O[C@H]2O[C@H](COC(=O)C(CCCCCCCCCCCCCC)C(O)CCCCCCCCCCCCCCC)[C@@H](O)[C@H](O)[C@H]2O)[C@H](O)[C@@H](O)[C@@H]1O` (some centres unmarked) [sTDCM, synthetic trehalose dicorynomycolate, reference compound], the “TNFα induction” value with THP-1 cells is recorded as “potent, robust induction of TNFα”. For the same compound, on mouse Mincle, the “Relative activity in mouse vs. human Mincle HEK cells” value was “more potent in the mouse vs. the human” and the “SEAP induction / activation of mouse Mincle-expressing HEK cells (in words)” value is “robust ability to activate”. On human Mincle, the “SEAP induction / activation of human Mincle-expressing HEK cells (in words)” value was “robust ability to activate”.
For `CCCCCCCCCCCCCCCC(CCCCCCCCCCCCCCC)C(=O)OC[C@H]1O[C@H](O[C@H]2O[C@H](COC(=O)C(CCCCCCCCCCCCCCC)CCCCCCCCCCCCCCC)[C@@H](O)[C@H](O)[C@H]2O)[C@H](O)[C@@H](O)[C@@H]1O` [Compound B32], the EC50 on mouse Mincle was 64.4 nM; at human Mincle, 50.2 nM.
As for `CCCCCCCCC(CCCCCCCC)C(=O)OC[C@H]1O[C@H](O[C@H]2O[C@H](COC(=O)C(CCCCCCCC)CCCCCCCC)[C@@H](O)[C@H](O)[C@H]2O)[C@H](O)[C@@H](O)[C@@H]1O` [Compound B18], the EC50 was 599 nM on mouse Mincle and 405 nM at human Mincle. For the same compound, the “Cell viability of Mincle HEK cells” value in data set [1] was “less substantial decreases”.
`CCCCCCCCCCCCCCCCCC(CCCCCCCCCCCCCCCCC)C(=O)OC[C@H]1O[C@H](O[C@H]2O[C@H](COC(=O)C(CCCCCCCCCCCCCCCCC)CCCCCCCCCCCCCCCCC)[C@@H](O)[C@H](O)[C@H]2O)[C@H](O)[C@@H](O)[C@@H]1O` [Compound B36]: the EC50 was 25800 nM on mouse Mincle and 21400 nM on human Mincle.
